Read-outs that look alike come from different tables or passages of the source.
System: slaughter weight pigs
Method: Pigs ([Yorkshire×Swedish Landrace]×Hampshire)(n=10×3 were fed twice daily 2% of their body weight with the respective diets (either low or high methionine diets), water ad libitum.
Two square stimulating electrodes were placed next to one another (not touching) and infront of the recording electrodes, after which the muscle was stimulated at 10, 20, 60, 150 and 200 Hz and the subsequent responses were recorded. Two leads were placed on either side of the abdomen at a position of the last rib to form a “triangle” with the reference electrode and serve to record both respiratory movements as well as sECG signal.
Using electrodes placed either side of the abdomen at the position of the last rib, and a reference electrode placed on the ear, it was possible to create an Einthoven triangle and to record both an ECG (plus heart rate) and respiration rate through diaphragm movements. The recorded signal was assessed in terms of rate and the Q-T interval (time taken for the ventricles to depolarize and repolarize) using Chart analysis software (AD Instruments, Chalgrove, Oxfordshire, UK).
In addition to the sEMG recordings, we were able to obtain non-invasive measurements of the rate of respiration (breaths/min) and the heart rate (bpm) as well as an analysis of the recorded ECG in terms of the time taken for ventricle depolarization and repolarization, the so-called Q-T interval.
Table 1 presents the effects of 1 weeks dietary supplementation with DLM on the respiration and heart rate of 90-100 kg slaughter weight pigs, as well as the Q-T Interval. Values are the mean of a number of pigs, where “n” represents the number of animals per group. (ns) represents a difference between means that was not quite significant.

[1] = post (n = 6), after 1 weeks dietary supplementation
[2] = pre (n = 6), before supplementation

Question: Which results are given for `CSCCC(N)C(=O)O` (racemic) [DLM, DL-methionine]?
Answer: Heart Rate [1]: 110.11 bpm; Q-T Interval [1]: 242.31 ms; Respiration [1]: 23.53 breaths/min; Difference in Q-T Interval: INCREASE by (post versus pre, P < 0.01): 8.5% P < 0.01; Difference in Heart Rate: DECREASE by (post versus pre, ns): 9% (ns); Difference in Respiration: DECREASE by (post versus pre, ns): 12% (ns); Heart Rate [2]: 121.17 bpm; Q-T Interval [2]: 223.21 ms; Respiration [2]: 26.83 breaths/min

Reference: patent US20140314904A1, “PRE-SLAUGHTER DIET INCLUDING METHIONINE” (ADISSEO FRANCE S.A.S., priority 2011, published 2014)
